Test [1] concerns the target T1, RAC-alpha serine/threonine-protein kinase (Homo sapiens, UniProt P31749). As to the kind of experiment: Inhibition of Akt1 at 50 uM.
The target of test [2] is Protein kinase C delta type (Homo sapiens, UniProt Q05655). As to the kind of experiment: Inhibition of PKCdelta at 10 uM ATP.
The target of test [3] is MAP kinase-activated protein kinase 2 (Homo sapiens, UniProt P49137). Nature of the test: Inhibition of MAPKAP2 at 10 uM ATP.
The target in test [4] is T1, RAC-alpha serine/threonine-protein kinase. As to the kind of experiment: Activity against GSK3 phosphorylation in FL5.12-Akt1 cells. Format: functional, cell-based.
Test [5] deals with Protein kinase C gamma type (Homo sapiens, UniProt P05129). As to the kind of experiment: Inhibition of PKCgamma at 10 uM ATP.
Test [6] addresses Vascular endothelial growth factor receptor 3 (Homo sapiens, UniProt P35916). Nature of the test: Inhibition of FLt4 at 1.0 mM ATP.
For the next test, the target named is Casein kinase II (Homo sapiens, UniProt P19784+P67870+P68400). As to the kind of experiment: Inhibition of CK2 at 10 uM ATP. The class given is protein-complex assay.
Test [7] concerns the target Proto-oncogene tyrosine-protein kinase Src (Homo sapiens, UniProt P12931). As to the kind of experiment: Inhibition of SRC kinase at 1.0 mM ATP.
Test [8] concerns the target T2, Serine/threonine-protein kinase Chk1 (Homo sapiens, UniProt O14757).
T2 sequence (O14757 whole entry): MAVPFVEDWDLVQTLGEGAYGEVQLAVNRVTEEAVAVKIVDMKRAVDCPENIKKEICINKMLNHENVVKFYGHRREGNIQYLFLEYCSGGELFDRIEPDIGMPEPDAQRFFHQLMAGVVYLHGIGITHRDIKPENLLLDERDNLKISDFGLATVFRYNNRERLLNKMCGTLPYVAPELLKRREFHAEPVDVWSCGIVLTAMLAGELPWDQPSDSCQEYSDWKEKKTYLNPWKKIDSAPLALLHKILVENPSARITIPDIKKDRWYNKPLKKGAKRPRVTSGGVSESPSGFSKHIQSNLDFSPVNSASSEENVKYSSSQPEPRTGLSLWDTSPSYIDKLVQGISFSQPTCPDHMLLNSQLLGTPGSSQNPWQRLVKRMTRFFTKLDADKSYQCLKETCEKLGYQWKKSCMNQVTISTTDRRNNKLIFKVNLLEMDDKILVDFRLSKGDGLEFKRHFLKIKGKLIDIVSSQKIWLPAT
As to the kind of experiment: Inhibition of Chk1 at 10 uM ATP.

In test [9] the target is RAC-gamma serine/threonine-protein kinase (Homo sapiens, UniProt Q9Y243). Nature of the test: Inhibition of Akt3 at 10 uM ATP.
Test [10] deals with Cyclin-dependent kinase 1 (Homo sapiens, UniProt P06493). Nature of the test: Inhibition of CDK1 at 10 uM ATP.
Test [11] concerns the target Mitogen-activated protein kinase 1 (Homo sapiens, UniProt P28482). Nature of the test: Inhibition of ERK2 at 10 uM ATP.

T1 sequence (P31749 whole entry): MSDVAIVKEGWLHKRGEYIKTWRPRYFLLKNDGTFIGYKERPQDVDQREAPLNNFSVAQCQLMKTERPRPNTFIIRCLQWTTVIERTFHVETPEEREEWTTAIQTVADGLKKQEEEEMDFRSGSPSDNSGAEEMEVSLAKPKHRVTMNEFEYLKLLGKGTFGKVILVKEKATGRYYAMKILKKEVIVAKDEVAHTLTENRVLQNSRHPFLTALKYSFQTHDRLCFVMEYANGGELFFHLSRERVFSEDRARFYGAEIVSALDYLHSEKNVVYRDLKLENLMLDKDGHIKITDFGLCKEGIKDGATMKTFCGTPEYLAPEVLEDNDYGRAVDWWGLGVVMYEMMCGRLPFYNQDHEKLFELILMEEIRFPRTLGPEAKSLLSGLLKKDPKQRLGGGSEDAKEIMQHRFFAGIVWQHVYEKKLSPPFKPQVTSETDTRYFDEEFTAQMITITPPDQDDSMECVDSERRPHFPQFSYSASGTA
Chain of Protein kinase C delta type (Q05655 whole entry): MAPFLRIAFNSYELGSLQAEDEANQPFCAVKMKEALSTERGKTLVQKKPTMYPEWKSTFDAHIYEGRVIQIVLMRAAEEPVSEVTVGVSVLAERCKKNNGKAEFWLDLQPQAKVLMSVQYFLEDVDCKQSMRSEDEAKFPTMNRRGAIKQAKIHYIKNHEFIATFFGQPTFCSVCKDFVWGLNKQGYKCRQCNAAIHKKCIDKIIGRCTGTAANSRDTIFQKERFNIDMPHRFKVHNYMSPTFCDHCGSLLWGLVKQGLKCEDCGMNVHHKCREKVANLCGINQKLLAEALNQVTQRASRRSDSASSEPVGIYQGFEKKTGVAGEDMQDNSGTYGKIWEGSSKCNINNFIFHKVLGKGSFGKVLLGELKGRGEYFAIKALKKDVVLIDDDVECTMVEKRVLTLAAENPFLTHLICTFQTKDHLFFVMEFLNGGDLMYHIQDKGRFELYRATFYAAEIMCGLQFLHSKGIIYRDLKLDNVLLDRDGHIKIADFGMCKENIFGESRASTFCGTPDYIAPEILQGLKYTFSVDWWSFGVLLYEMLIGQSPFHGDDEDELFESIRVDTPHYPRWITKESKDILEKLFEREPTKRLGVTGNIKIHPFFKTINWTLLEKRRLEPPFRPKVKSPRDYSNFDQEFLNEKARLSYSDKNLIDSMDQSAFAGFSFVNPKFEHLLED
Chain of RAC-gamma serine/threonine-protein kinase (Q9Y243 whole entry): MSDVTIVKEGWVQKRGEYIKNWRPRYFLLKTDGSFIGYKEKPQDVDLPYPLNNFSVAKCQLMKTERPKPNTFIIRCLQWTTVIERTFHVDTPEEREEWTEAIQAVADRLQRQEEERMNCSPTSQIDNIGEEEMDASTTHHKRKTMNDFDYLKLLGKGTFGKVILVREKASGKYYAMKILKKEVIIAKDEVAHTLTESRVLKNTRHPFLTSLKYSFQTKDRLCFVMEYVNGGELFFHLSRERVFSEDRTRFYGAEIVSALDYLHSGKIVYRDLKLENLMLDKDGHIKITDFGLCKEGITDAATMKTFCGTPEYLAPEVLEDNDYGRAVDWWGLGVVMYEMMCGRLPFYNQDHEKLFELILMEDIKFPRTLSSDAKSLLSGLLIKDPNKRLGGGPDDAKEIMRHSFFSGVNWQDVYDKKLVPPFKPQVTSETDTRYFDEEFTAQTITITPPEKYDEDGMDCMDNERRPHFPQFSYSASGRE
Chain of Cyclin-dependent kinase 1 (P06493 whole entry): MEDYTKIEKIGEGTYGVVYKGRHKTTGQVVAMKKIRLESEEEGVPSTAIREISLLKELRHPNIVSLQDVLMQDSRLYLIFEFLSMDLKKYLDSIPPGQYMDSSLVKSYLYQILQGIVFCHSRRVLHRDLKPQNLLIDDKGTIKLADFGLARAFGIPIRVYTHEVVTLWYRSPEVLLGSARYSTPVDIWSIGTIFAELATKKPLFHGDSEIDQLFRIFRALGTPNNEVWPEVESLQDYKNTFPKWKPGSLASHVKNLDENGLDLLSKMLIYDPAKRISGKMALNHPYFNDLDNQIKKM
Chain of Mitogen-activated protein kinase 1 (P28482 whole entry): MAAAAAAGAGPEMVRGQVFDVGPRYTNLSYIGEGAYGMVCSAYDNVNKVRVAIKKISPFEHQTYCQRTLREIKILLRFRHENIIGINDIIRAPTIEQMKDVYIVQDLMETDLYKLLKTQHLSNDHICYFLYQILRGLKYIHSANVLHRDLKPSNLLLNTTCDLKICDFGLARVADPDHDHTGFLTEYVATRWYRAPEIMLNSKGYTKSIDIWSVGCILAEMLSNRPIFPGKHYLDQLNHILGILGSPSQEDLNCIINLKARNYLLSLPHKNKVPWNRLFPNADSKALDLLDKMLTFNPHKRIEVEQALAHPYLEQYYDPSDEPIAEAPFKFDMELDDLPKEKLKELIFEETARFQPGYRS
Chain of Vascular endothelial growth factor receptor 3 (P35916 whole entry): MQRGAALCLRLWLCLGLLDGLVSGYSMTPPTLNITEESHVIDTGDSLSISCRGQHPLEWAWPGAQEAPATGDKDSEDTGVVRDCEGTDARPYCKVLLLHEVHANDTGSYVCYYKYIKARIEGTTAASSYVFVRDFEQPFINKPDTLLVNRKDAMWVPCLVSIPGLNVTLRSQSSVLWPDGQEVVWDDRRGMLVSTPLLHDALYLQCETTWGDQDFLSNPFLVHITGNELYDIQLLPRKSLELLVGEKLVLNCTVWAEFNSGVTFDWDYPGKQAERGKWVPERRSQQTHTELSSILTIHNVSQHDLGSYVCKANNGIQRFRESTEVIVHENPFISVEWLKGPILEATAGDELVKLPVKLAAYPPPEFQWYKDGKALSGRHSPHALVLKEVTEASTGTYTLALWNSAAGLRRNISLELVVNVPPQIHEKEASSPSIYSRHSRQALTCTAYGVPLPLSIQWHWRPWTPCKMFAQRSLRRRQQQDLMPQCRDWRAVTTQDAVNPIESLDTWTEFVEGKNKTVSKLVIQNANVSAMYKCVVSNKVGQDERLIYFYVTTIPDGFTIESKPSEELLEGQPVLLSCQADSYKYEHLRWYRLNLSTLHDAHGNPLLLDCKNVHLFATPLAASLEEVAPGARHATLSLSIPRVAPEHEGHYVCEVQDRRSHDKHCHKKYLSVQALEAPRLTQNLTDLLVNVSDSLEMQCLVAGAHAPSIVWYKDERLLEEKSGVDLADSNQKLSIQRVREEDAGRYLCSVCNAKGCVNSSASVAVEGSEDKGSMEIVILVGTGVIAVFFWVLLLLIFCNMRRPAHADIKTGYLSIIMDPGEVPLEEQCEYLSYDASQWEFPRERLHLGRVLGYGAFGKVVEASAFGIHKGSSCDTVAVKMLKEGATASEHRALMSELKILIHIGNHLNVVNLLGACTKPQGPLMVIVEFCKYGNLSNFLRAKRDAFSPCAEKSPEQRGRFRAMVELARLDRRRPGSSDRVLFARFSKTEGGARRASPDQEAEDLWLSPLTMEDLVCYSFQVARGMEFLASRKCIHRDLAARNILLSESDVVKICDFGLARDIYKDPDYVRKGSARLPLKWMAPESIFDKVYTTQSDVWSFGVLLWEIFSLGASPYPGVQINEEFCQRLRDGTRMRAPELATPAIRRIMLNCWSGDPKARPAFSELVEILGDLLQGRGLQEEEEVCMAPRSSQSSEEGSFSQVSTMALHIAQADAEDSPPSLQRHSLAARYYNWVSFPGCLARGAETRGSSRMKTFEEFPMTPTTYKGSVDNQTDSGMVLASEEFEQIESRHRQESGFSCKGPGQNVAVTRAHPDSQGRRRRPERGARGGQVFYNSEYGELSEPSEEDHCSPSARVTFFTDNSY
Chain of Proto-oncogene tyrosine-protein kinase Src (P12931 2-536 limits assumed): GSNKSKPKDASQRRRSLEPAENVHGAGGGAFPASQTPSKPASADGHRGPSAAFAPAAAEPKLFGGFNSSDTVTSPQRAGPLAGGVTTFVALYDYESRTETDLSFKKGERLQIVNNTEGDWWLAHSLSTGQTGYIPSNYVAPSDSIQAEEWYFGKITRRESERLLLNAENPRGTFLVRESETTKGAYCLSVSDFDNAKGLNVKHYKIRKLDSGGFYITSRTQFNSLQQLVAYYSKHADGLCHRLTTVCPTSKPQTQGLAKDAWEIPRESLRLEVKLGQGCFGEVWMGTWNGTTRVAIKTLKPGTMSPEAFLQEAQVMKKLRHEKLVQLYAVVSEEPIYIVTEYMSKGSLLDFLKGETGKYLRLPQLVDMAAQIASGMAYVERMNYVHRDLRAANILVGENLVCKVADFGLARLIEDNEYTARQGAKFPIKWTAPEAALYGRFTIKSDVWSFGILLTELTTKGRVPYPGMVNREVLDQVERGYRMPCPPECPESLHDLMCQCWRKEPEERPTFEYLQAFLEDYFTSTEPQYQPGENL

For the compound `N=C(N)c1ccc(-c2cncc(OC[C@@H](N)Cc3c[nH]c4ccccc34)c2)cc1`, the inhibition (in general, the drop in the measured response relative to a control, in per cent) in test [1] is 41%.

Take `N[C@H](COc1cncc(-c2cccc(S(N)(=O)=O)c2)c1)Cc1c[nH]c2ccccc12`: the inhibition in test [1] turned out to be 0%.

As to `N=C(NO)c1ccc(-c2cncc(OC[C@@H](N)Cc3c[nH]c4ccccc34)c2)cc1`, the inhibition in test [1] stood at 48%.

Regarding `N[C@H](COc1cncc(NCc2cccnc2)c1)Cc1ccccc1`, in test [1], the inhibition came to 41%.

In turn, `N[C@H](COc1cncc(-c2ccccc2-c2ccncc2)c1)Cc1c[nH]c2ccccc12` had an inhibition in [1] of 10%.

Compound `N[C@H](COc1cncc(-c2ccc([N+](=O)[O-])cc2)c1)Cc1c[nH]c2ccccc12` displayed an inhibition in test [1] of 13%.

In turn, `N[C@H](COc1cncc(NCc2ccncc2)c1)Cc1ccccc1` gave an inhibition in [1] of 26%.

Consider `N[C@H](COc1cncc(-c2ccc(S(N)(=O)=O)cc2)c1)Cc1c[nH]c2ccccc12`, for which the inhibition in test [1] turned out to be 12%.

`CC(=O)NCc1ccc(-c2cncc(OC[C@@H](N)Cc3c[nH]c4ccccc34)c2)cc1` displayed an inhibition in [1] of 3%.

For `N[C@H](COc1cncc(-c2ccc3cnccc3c2)c1)Cc1c[nH]c2ccccc12`, the IC50 (in general, the concentration that inhibits the measured activity by half) in test [2] is 6100 nM; in test [3] it was over 50000 nM; in [5], 270 nM; in test [6], over 50000 nM; against Casein kinase II, 11800 nM; in [7] it was over 50000 nM. In addition, the 50% inhibitory concentration (IC50) is 4200 nM in test [8], 35 nM in test [9], 100 nM in [10] and 910 nM in test [11]. Also, the EC50 (usually the midpoint of the concentration-response curve) in test [4] worked out at 1500 nM.

Regarding `N[C@H](COc1cncc(NC(=O)c2cccnc2)c1)Cc1ccccc1`, the inhibition in test [1] was found to be 26%.
